From patent publication US8962575B2, “Clerodane derivatives for modulation of leukotriene receptor activity and related diseases” (Biotropics Malaysia Berhad, priority 2011, dated 2015)

Target: T1, Human BLT2 Receptor (Homo sapiens, UniProt Q9NPC1)
T1 construct: host or cells: BLT2 HEK293T cells transiently transfected with chimeric G protein Gαqi5
T1 sequence (Q9NPC1 1-358): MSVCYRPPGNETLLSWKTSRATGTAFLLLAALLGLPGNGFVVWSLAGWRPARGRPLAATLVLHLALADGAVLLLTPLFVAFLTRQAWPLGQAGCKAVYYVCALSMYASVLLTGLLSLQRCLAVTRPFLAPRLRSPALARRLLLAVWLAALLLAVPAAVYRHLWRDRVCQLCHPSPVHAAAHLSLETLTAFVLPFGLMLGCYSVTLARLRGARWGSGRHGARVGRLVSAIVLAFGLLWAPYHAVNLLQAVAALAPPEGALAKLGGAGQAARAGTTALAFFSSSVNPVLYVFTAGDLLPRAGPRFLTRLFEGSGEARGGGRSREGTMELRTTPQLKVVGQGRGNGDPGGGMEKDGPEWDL
Experiment: Recombinant cell assay (calcium flux, antagonist mode, LTB4 pre-stimulation)
Format: cell-based
Settings: pure compounds at 10 μM, 5 min pre-incubation; antagonist mode with LTB4; BLT2 HEK293T cells
Experimental: A) Recombinant Cell Assay (Human BLT2 Receptor)
The BLT2 assay conducted was a functional cell based assay, with transiently transfected HEK293T cells (Transfection: with chimeric G protein Gαqi5; Minami et al, “Analysis of the effects of halothane on Gi-coupled muscarinic M2 receptor signal” Pharmacology (2004) 72: 205-12). […] The test items were measured subsequently in the antagonist mode as described above in a concentration of 10 μM (pure compounds) or 15 μg/ml (extracts and/or mixtures).
This assay was performed by Multispan, Inc., Hayward (CA, USA) under the catalog no C1272, the assay principle is outlined by Yokomizo (J Exp Med (2000) 192:421-432).
• Cells: BLT2 HEK293T cells transiently transfected with chimeric G protein Gαqi5 • Compounds: Test compounds dissolved in DMSO at a concentration of 10 mM or 100 mg/mL.
Calcium assay: Cells were seeded in 384-well plates at appropriate densities and cultured overnight. Calcium assays were conducted according to the manufacturer's protocol using Molecular Devices FLIPR Calcium 4 Assay kit. Calcium 4 dye loading buffer was added to the cells and incubated for one hour at 37° C. The test compounds were pre-incubated for 5 minutes at a final concentration of 10 μM or 15 μg/mL, respectively. Calcium flux was measured for 90 seconds with the respective agonist compound injected into the wells at 19th second. Agonist was used at a concentration in which maximum reaction was observed.
Data analysis: Calcium assay results are expressed as “RFU” (Relative Fluorescence Units) and are shown in the following table as “remaining % RFU against DMOS) (meaning % Increase in RFU after correction for DMSO and baseline). Two-tailed Student's t-test was used for treatment comparisons and statistic significance was defined as p<0.05.

| remaining % RFU against DMSO [%] | SMILES |
| --- | --- |
| 78.6 | COC(=O)C1=CC(O)CC2C3(C)CC(c4ccoc4)OC(=O)C3CC(OC3OC(CO)C(O)C(O)C3O)C12C (stereo not drawn) [COI 4, methyl 2-(furan-3-yl)-9-hydroxy-6a,10b-dimethyl-4-oxo-6-(3,4,5-trihydroxy-6-(hydroxymethyl)tetrahydro-2H-pyran-2-yloxy)-2,4,4a,5,6,6a,9,10,10a,10b-decahydro-1H-benzo[f]isochromene-7-carboxylate] |
| 79.7 | COC(=O)C1=CCCC2C3(C)CC(c4ccoc4)OC(=O)C3CC(OC3OC(CO)C(OC4OC(CO)C(O)C(O)C4O)C(O)C3O)C12C (stereo not drawn) [COI 5, methyl 6-(3,4-dihydroxy-6-(hydroxymethyl)-5-(3,4,5-trihydroxy-6-(hydroxymethyl)tetrahydro-2H-pyran-2-yloxy)tetrahydro-2H-pyran-2-yloxy)-2-(furan-3-yl)-6a,10b-dimethyl-4-oxo-2,4,4a,5,6,6a,9,10,10a,10b-decahydro-1H-benzo[f]isochromene-7-carboxylate] |
| 83.2 | CC12CC(c3ccoc3)OC(=O)C1CC1OC(=O)C3(O)C(OC4OC(CO)C(O)C(O)C4O)CCC2C13C (stereo not drawn) [COI 7, 9-(furan-3-yl)-3a-hydroxy-3a1,10a-dimethyl-3-(3,4,5-trihydroxy-6-(hydroxymethyl)tetrahydro-2H-pyran-2-yloxy)decahydroisobenzofuro[7,1-fg]isochromene-4,7(3a1H,5aH)-dione] |
